Assay results taken from PubChem BioAssay AID1963986 (Molecular Pharmacology Branch, DTP, NCI, 2024).

System: 171881-019-R-J1-PDC tumor spheroid viability
Assay: Anticancer human tumor 171881-019-R-J1-PDC patient-derived invasive breast carcinoma cell line growth inhibition [PI3K]
Details: spheroids with HUVEC and MSC; for IC50: curve of first compound; for viability, T/C: stronger effect = lower value
Summary of the method: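 High-throughput combination screen: PI3K inhibitors crossed with targeted small molecules on complex spheroids of tumor cells, HUVEC and MSCs at 37 degrees C, 5% CO2. Top concentration was at or near clinical Cmax (otherwise 10 microM), with half-log decrements.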

[1] = second compound 0.0316 µM, first compound 0.0316 µM
[2] = second compound 0.0316 µM, first compound 0.1 µM
[3] = second compound 0.0316 µM, first compound 0.316 µM
[4] = second compound 0.0316 µM, first compound 1 µM
[5] = second compound 0.0316 µM, first compound 3.16 µM
[6] = second compound 0.0316 µM, first compound 10 µM
[7] = second compound 0.1 µM, first compound 0.0316 µM
[8] = second compound 0.1 µM, first compound 0.1 µM
[9] = second compound 0.1 µM, first compound 0.316 µM
[10] = second compound 0.1 µM, first compound 1 µM
[11] = second compound 0.1 µM, first compound 3.16 µM
[12] = second compound 0.1 µM, first compound 10 µM
[13] = second compound 0.316 µM, first compound 0.0316 µM
[14] = second compound 0.316 µM, first compound 0.1 µM
[15] = second compound 0.316 µM, first compound 0.316 µM
[16] = second compound 0.316 µM, first compound 1 µM
[17] = second compound 0.316 µM, first compound 3.16 µM
[18] = second compound 0.316 µM, first compound 10 µM
[19] = second compound 1 µM, first compound 0.0316 µM
[20] = second compound 1 µM, first compound 0.1 µM
[21] = second compound 1 µM, first compound 0.316 µM
[22] = second compound 1 µM, first compound 1 µM
[23] = second compound 1 µM, first compound 3.16 µM
[24] = second compound 1 µM, first compound 10 µM
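Note: spheroids exposed to compound for 7 days before viability read.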
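Throughout, for viability, T/C: 100% = DMSO vehicle-treated spheroids.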

Compound: CC(C)NCC(C(=O)N1CCN(c2ncnc3c2C(C)CC3O)CC1)c1ccc(Cl)cc1 (centres undefined) + Cc1nc(NC(=O)N2CCCC2C(N)=O)sc1-c1ccnc(C(C)(C)C(F)(F)F)c1
- IC50 (second compound 0.0316 µM): 276 nM
- IC50 (second compound 0.1 µM): 262 nM
- IC50 (second compound 0.316 µM): 72.8 nM
- IC50 (second compound 1 µM): < 31.6 nM
- IC50 (second compound 3.16 µM): < 31.6 nM
- IC50 (second compound 10 µM): < 31.6 nM
- viability, T/C [1]: 97.9%
- viability, T/C [2]: 68.3%
- viability, T/C [3]: 50.1%
- viability, T/C [4]: 28.4%
- viability, T/C [5]: 16.7%
- viability, T/C [6]: 9.99%
- viability, T/C [7]: 81.6%
- viability, T/C [8]: 64.3%
- viability, T/C [9]: 49.5%
- viability, T/C [10]: 25.9%
- viability, T/C [11]: 13.6%
- viability, T/C [12]: 8.89%
- viability, T/C [13]: 55.5%
- viability, T/C [14]: 46.7%
- viability, T/C [15]: 38%
- viability, T/C [16]: 23.2%
- viability, T/C [17]: 12.6%
- viability, T/C [18]: 8.17%
- viability, T/C [19]: 32%
- viability, T/C [20]: 31%
- viability, T/C [21]: 28.6%
- viability, T/C [22]: 16.1%
- viability, T/C [23]: 8.99%
- viability, T/C [24]: 7.16%
- viability, T/C (second compound 3.16 µM, first compound 0.0316 µM): 14.6%
- viability, T/C (second compound 3.16 µM, first compound 0.1 µM): 14.8%
- viability, T/C (second compound 3.16 µM, first compound 0.316 µM): 12.4%
- viability, T/C (second compound 3.16 µM, first compound 1 µM): 8.95%
- viability, T/C (second compound 3.16 µM, first compound 3.16 µM): 6.94%
- viability, T/C (second compound 3.16 µM, first compound 10 µM): 4.98%
- viability, T/C (second compound 10 µM, first compound 0.0316 µM): 3.06%
- viability, T/C (second compound 10 µM, first compound 0.1 µM): 3.52%
- viability, T/C (second compound 10 µM, first compound 0.316 µM): 3.3%
- viability, T/C (second compound 10 µM, first compound 1 µM): 3.85%
- viability, T/C (second compound 10 µM, first compound 3.16 µM): 2.77%
- viability, T/C (second compound 10 µM, first compound 10 µM): 1.56%

Compound: CC1(C)CCC(Nc2ncc(C(F)(F)F)c(-c3c[nH]c4c(P(C)(C)=O)c(C#N)ccc34)n2)CN1 (centres undefined) + CC(Nc1ccc2c(c1)OCCn1cc(N3C(=O)OCC3C(F)F)nc1-2)C(N)=O
- IC50 (second compound 0.00316 µM): 5040 nM
- IC50 (second compound 0.01 µM): 4480 nM
- IC50 (second compound 0.0316 µM): 1660 nM
- IC50 (second compound 0.1 µM): < 31.6 nM
- IC50 (second compound 0.316 µM): < 31.6 nM
- IC50 (second compound 1 µM): < 31.6 nM
- viability, T/C (second compound 0.00316 µM, first compound 0.0316 µM): 68%
- viability, T/C (second compound 0.00316 µM, first compound 0.1 µM): 70.8%
- viability, T/C (second compound 0.00316 µM, first compound 0.316 µM): 74.5%
- viability, T/C (second compound 0.00316 µM, first compound 1 µM): 72.6%
- viability, T/C (second compound 0.00316 µM, first compound 3.16 µM): 81.4%
- viability, T/C (second compound 0.00316 µM, first compound 10 µM): 15.6%
- viability, T/C (second compound 0.01 µM, first compound 0.0316 µM): 60.8%
- viability, T/C (second compound 0.01 µM, first compound 0.1 µM): 65.4%
- viability, T/C (second compound 0.01 µM, first compound 0.316 µM): 65.8%
- viability, T/C (second compound 0.01 µM, first compound 1 µM): 73.6%
- viability, T/C (second compound 0.01 µM, first compound 3.16 µM): 66.9%
- viability, T/C (second compound 0.01 µM, first compound 10 µM): 12%
- viability, T/C [1]: 44.7%
- viability, T/C [2]: 49.7%
- viability, T/C [3]: 54.6%
- viability, T/C [4]: 57.4%
- viability, T/C [5]: 47.4%
- viability, T/C [6]: 5.82%
- viability, T/C [7]: 34.1%
- viability, T/C [8]: 37%
- viability, T/C [9]: 39.9%
- viability, T/C [10]: 40.4%
- viability, T/C [11]: 33.3%
- viability, T/C [12]: 2.6%
- viability, T/C [13]: 27.7%
- viability, T/C [14]: 26.8%
- viability, T/C [15]: 30.2%
- viability, T/C [16]: 29.4%
- viability, T/C [17]: 24.4%
- viability, T/C [18]: 1.37%
- viability, T/C [19]: 21.3%
- viability, T/C [20]: 22.5%
- viability, T/C [21]: 23.6%
- viability, T/C [22]: 22.9%
- viability, T/C [23]: 16.8%
- viability, T/C [24]: 1.29%
